Source: patent US11214803B2, “Modulators of YAP1 expression” (Ionis Pharmaceuticals, Inc., priority 2019, dated 2022)
Strand notation (5' to 3'): a small letter for the sugar, then the base; units joined by * are phosphorothioate-linked, units joined directly phosphodiester-linked; [ ] holds rarer units or linkages, { } end groups; capitals alone tell only the bases. k = constrained ethyl (cEt); [5mC] = 5-methylcytosine; d = 2'-deoxy (DNA)

Columns and labels:
Yap1 mRNA [1] = assay: Antisense inhibition of human Yap1 in A-431 cells by cEt gapmers, single dose (Example 3, RTS36584); assay type: cell-based
Summary of the method: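 A-431 cells were treated by free uptake with 2,000 nM modified oligonucleotide (3-10-3 cEt gapmers, full phosphorothioate, 5-methylcytosines) for about 48 hours. Yap1 mRNA was quantified by real-time RT-PCR, normalized to RiboGreen total RNA, and expressed as % of untreated control; asterisked values mark oligonucleotides targeting the amplicon region.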

Yap1 mRNA [2] = assay: Dose-dependent inhibition of human Yap1 in A-431 cells (Example 8, 10,000 cells per well, RTS4814); assay type: cell-based; conditions: for Yap1 mRNA, % UTC: A-431 cells, 10,000 cells per well; for IC50 / % UTC (Yap1 mRNA): A-431 cells
Summary of the method: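 Yap1 mRNA, normalized to RIBOGREEN total RNA and expressed as % untreated control, was read with RTS4814 about 48 h after free-uptake oligonucleotide treatment of A-431 cells at 10,000 cells/well. IC50 derived by linear regression of log/linear data.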

[3] = Table 27, Yap1 mRNA by 3-10-3 cEt gapmers targeting SEQ ID NO.: 1, and 2, percent of untreated control
[4] = 31.3 nM, free uptake, approximately 48 hours, RTS4814
[5] = 125.0 nM, free uptake, approximately 48 hours, RTS4814
[6] = 500.0 nM, free uptake, approximately 48 hours, RTS4814
[7] = 2000.00 nM, free uptake, approximately 48 hours, RTS4814
[8] = free uptake, approximately 48 hours, RTS4814, linear regression on log/linear plot
[9] = Table 28, Yap1 mRNA as percent of untreated control, 3-10-3 cEt gapmers targeting SEQ ID NO.: 1, and 2
[10] = Table 35, Yap1 mRNA as percent of untreated control, 3-10-3 cEt gapmers targeting SEQ ID NO: 1 and 2, single dose
[11] = Table 34, Yap1 mRNA as percent of untreated control, 3-10-3 cEt gapmers targeting SEQ ID NO: 1 and 2, single dose

Substance | Yap1 mRNA, % UTC (Yap1 mRNA [2]; [4]) | Yap1 mRNA, % UTC (Yap1 mRNA [2]; [5]) | Yap1 mRNA, % UTC (Yap1 mRNA [2]; [6]) | Yap1 mRNA, % UTC (Yap1 mRNA [2]; [7]) | IC50 (Yap1 mRNA [2]; [8]) | YAP1 (% UTC) (Yap1 mRNA [1]; [9]) | further results
1074221 (antisense kG*kA*kA*dT*dG*dA*dG*d[5mC]*dT*d[5mC]*dG*dA*dA*k[5mC]*kA*kT) [compound 1074221] | 75 % UTC | 38 % UTC | 14 % UTC | 7 % UTC | 100 nM | – | YAP1 (% UTC) (Yap1 mRNA [1]; [3]): 6 % UTC
1074222 (antisense kA*kG*kG*dA*dA*dT*dG*dA*dG*d[5mC]*dT*d[5mC]*dG*kA*kA*k[5mC]) [compound 1074222] | 59 % UTC | 21 % UTC | 8 % UTC | 5 % UTC | < 20 nM | 5 % UTC | –
1074229 (antisense kG*kA*kA*dG*dA*d[5mC]*dT*dG*dT*d[5mC]*dG*dA*dA*kG*kA*kT) [compound 1074229] | – | – | – | – | – | – | YAP1 (% UTC) (Yap1 mRNA [1]; [10]): 5 % UTC; % UTC (Yap1 mRNA) (Yap1 mRNA [2]; 31.3 nM): 58 % UTC; % UTC (Yap1 mRNA) (Yap1 mRNA [2]; 125.0 nM): 24 % UTC; % UTC (Yap1 mRNA) (Yap1 mRNA [2]; 500.0 nM): 9 % UTC; % UTC (Yap1 mRNA) (Yap1 mRNA [2]; 2000.00 nM): 5 % UTC; IC50 (Yap1 mRNA [2]; Yap1 mRNA): < 20 nM
1074318 (antisense kG*kG*kA*dG*dA*dA*dT*dT*dT*dG*d[5mC]*dT*dG*kT*kG*k[5mC]) [compound 1074318] | 48 % UTC | 12 % UTC | 6 % UTC | 4 % UTC | < 20 nM | 4 % UTC | –
1074351 (antisense kA*kT*kG*d[5mC]*dT*dT*dA*dG*dT*d[5mC]*d[5mC]*dA*d[5mC]*kT*kG*kT) [compound 1074351] | 69 % UTC | 33 % UTC | 13 % UTC | 7 % UTC | 100 nM | – | YAP1 (% UTC) (Yap1 mRNA [1]; Table 29, Yap1 mRNA as percent of untreated control, 3-10-3 cEt gapmers targeting SEQ ID NO.: 1, and 2): 7 % UTC
1074413 (kA*k[5mC]*kT*dG*dT*dG*dA*dA*dA*dG*dA*dG*dG*kT*k[5mC]*kA; antisense) [compound 1074413] | 50 % UTC | 19 % UTC | 6 % UTC | 3 % UTC | < 20 nM | – | YAP1 (% UTC) (Yap1 mRNA [1]; [3]): 4 % UTC
1074414 (kA*kA*k[5mC]*dT*dG*dT*dG*dA*dA*dA*dG*dA*dG*kG*kT*k[5mC]; antisense) [compound 1074414] | 64 % UTC | 34 % UTC | 14 % UTC | 7 % UTC | 100 nM | 6 % UTC | –
1074420 (kG*kA*kT*dT*d[5mC]*dT*dT*dT*dA*dG*dA*dG*d[5mC]*k[5mC]*kA*kA; antisense) [compound 1074420] | 38 % UTC | 8 % UTC | 3 % UTC | 2 % UTC | < 20 nM | – | YAP1 (% UTC) (Yap1 mRNA [1]; [11]): 2 % UTC
1076564 (kT*kA*kA*dA*dG*dT*dA*dA*dT*dG*d[5mC]*dT*dA*k[5mC]*kA*kG; antisense) [compound 1076564] | – | – | – | – | – | – | YAP1 (% UTC) (Yap1 mRNA [1]; [11]): 77 % UTC
1076565 (k[5mC]*kA*kT*dT*dA*dA*dG*dT*d[5mC]*dA*d[5mC]*dA*dG*k[5mC]*kA*kT; antisense) [compound 1076565] | – | – | – | – | – | – | YAP1 (% UTC) (Yap1 mRNA [1]; [10]): 74 % UTC
